How the values were obtained:
[1] = tested on: human pluripotent stem cells (hPSCs); assay: Mesendoderm induction: BRACHYURY immunofluorescence in hPSCs; format: cell-based
Experimental: For differentiation experiments, hESCs or hiPSCs can be grown on Geltrex, washed once with PBS and dissociated into single cells with Accutase ([…] Technologies). Cells are plated at a density of 4×10^4 cells/cm^2 onto Geltrex-coated plates in mTeSR1 medium supplemented with the ROCK inhibitor Y27632 10 μM (Stemgent). Cells are fed daily with mTeSR1 without Y27632 for 2-3 days until they reached 50% confluency. Mesendoderm differentiation-the media is changed to Advanced RPMI (A-RPMI, Invitrogen) supplemented with 1×L-glutamax and 1× penicillin/streptomycin and either CHIR99021 (CHIR, Stemgent), human Wnt3a (R&D systems), and/or human activin A (R&D systems) at the doses described. Definitive endoderm differentiation-cells are treated with […] for 24 hours, then […]+100 ng/mL of activin A for 2-3 days. Hepatic differentiation-cells at the definitive endoderm stage are treated with […]27 supplement (Invitrogen)+20 ng/mL BMP-4 (R&D systems)+10 ng/mL FGF2 (Invitrogen) for 5 days, then […]27+10 ng/mL HGF for 5 days, then HCM Hepatocyte Culture Medium (Lonza) supplemented with 20 ng/mL Oncostatin M and 10 ng/mL HGF (Peprotech) for 5 days. Pancreatic differentiation-cells at the definitive endoderm stage are treated with DMEM/F12+2% FBS (Hyclone)+50 ng/mL FGF7 (R&D systems) for 2 days, then high-glucose DMEM (Mediatech)+1% B27+2 μM retinoic acid (Sigma)+0.25 μM KAAD cyclopamine (EMD Millipore)+100 ng/mL recombinant human Noggin (R&D systems) for 4 days, then high-glucose DMEM+1% B27+100 ng/mL Noggin+300 nM indolactam V (Stemgent)+1 μM ALK5 inhibitor II (Axxora) for 4 days. Anterior foregut endoderm differentiation-cells at the definitive endoderm stage are treated with DMEM/F12+1×L-glu+1×B27+200 ng/mL Noggin+10 μM SB431542 (Stemgent) for 3 days. […] Immunofluorescence is visualized using an inverted fluorescence microscope (Nikon Eclipse Ti, Tokyo, Japan). Quantification is performed by counting a minimum of five random fields at 10× magnification. […]

hPSC-derived SIX2+ cells = assay: Response of hPSC-derived SIX2+ cells to canonical Wnt signaling (CHIR); format: cell-based, human
Experimental: To test the competence of hPSC-derived SIX2+ cells to respond to canonical Wnt signaling, the Inventors treated cells on day 6 of differentiation with […] CHIR for 24 hours, followed by withdrawal of CHIR. […] Furthermore, hPSC-derived SIX2+ cells explanted into dissociated-reaggregated mouse embryonic kidneys formed organizing clusters of cells that expressed LTL (FIG. 7I). The Inventors therefore concluded that the ability of hPSCderived PAX2+LHX1+ cells to be differentiated into cells expressing multiple markers of kidney CMand that could form tubule like structures in response to Wnt signaling was consistent with the behavior and function of nephrogenic IM cells.

[2] = 5 mM CHIR for 24 hours on day 6, read on day 8, compared with cells not treated with CHIR

With Cc1c[nH]c(-c2cnc(NCCNc3ccc(C#N)cn3)nc2-c2ccc(Cl)cc2Cl)n1 [CHIR99021] the “cells expressing BRACHY” value ([1]; 5 μM, 24 hours) was 98.7±1.3%, the “efficiency of BRACHYURY+MIXL1+ mesendoderm differentiation” value ([1]; summary statement) was roughly 100% and the SIX2 expression (hPSC-derived SIX2+ cells; [2]) was “downregulation of SIX2 expression”. For the same compound, the “expression of proximal tubule marker LTL” value (hPSC-derived SIX2+ cells; [2]) was “increased expression” and the cell morphology (hPSC-derived SIX2+ cells; within 24 hours of 5 mM CHIR treatment) was “formation of tubular-like structures”.

Source: patent US20160272937A1, “METHODS OF GENERATING INTERMEDIATE MESODERM CELLS FROM HUMAN PLURIPOTENT STEM CELLS” (THE BRIGHAM AND WOMEN'S HOSPITAL, INC., priority 2013, published 2016)
